Counter-ions that a name gives are not always drawn.
molecular target: hNAAA (Homo sapiens (Human), UniProt Q02083); experiment: NAAA fluorescence-based inhibition assay with PAMCA substrate; format: biochemical; settings: purified activated hNAAA, PAMCA 5 μM, pH 4.5, 37° C.
Source text: In order to have an assay method more conducive to high-throughput screening than those published for measuring the NAE hydrolyzing activity of NAAA [Proc. Natl. Acad. Sci. USA. 2009; 106(49):20966-71], the fluorogenic PEA analog N-(4-methyl coumarin)palmitamide (PAMCA), which is hydrolyzed to fluorescent 7-amino-4-methyl coumarin (AMC) and palmitic acid, was developed. [J. Proteome Res. 2012; 11(2):972-981], [PloS One. 2012; 7: e43877]. For three point concentration inhibition assays with hNAAA the following procedure was used. Purified activated NAAA (final concentration of 0.25 μg/mL) was incubated in assay buffer (100 mM citrate-phosphate buffer, pH 4.5, 3 mM DTT, 0.1% Triton X-100, 0.05% BSA, and 150 mM NaCl) made up to a total volume of 180 μL, followed by addition of the compound dissolved in 10 μL DMSO (along with DMSO neat for the control sample) with the final concentrations for each compound of 100, 10, and 1 μM, in triplicate on a 96 well plate. These samples were allowed to incubate for 15 min at room temperature and then 10 μL of a PAMCA stock solution in DMSO (final PAMCA concentration [5 μM]) was added. After 5 minutes of agitation on a shaking plate, the reaction was allowed to proceed at 37° C. for 120 minutes, with fluorescence readings taken every 10 minutes at a wavelength of 460 nm (using an excitation wavelength of 360 nm) on a Synergy HT Plate Reader using Gen5 software from Bio-Tek. The enzyme activity was calculated by converting the relative fluorescence units to AMC formed, using a standard curve of AMC.
For compounds that inhibit hNAAA in range IC50<1 μM, full inhibition curves using eight different concentrations of inhibitor (8 point assay) were generated. The assay procedure used was the same as the three point assay. For ostensibly covalent compounds (as observed by a significant decrease in the slope of a plot of fluorescence vs. time in three point screen), samples were allowed to incubate for 2 hours at 37° C., instead of 15 minutes, before addition of 10 μL of a PAMCA stock solution in DMSO for a final PAMCA concentration of 5 μM. After 5 minutes of agitation on a shaking plate, the reaction was allowed to proceed at 37° C. for 120 minutes. Inhibition constants were calculated using pro Fit software (Quantum Soft, Uetikon am See, Switzerland) and a Levenberg-Marquardt algorithm.

hNAAA, sequence (Q02083 29-125): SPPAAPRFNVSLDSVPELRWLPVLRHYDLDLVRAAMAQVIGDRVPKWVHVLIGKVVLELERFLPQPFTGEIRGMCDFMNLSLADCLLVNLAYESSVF
hNAAA, sequence (Q02083 126-359): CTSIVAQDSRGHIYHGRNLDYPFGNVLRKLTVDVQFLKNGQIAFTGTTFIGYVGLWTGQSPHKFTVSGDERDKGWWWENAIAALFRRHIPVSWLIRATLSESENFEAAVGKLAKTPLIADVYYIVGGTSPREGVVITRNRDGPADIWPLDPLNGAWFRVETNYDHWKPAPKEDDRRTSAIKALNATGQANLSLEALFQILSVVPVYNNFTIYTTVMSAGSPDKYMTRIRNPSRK

Compared with `CC[C@H]1CC[C@H](c2ccc(C(=O)N[C@H]3C[C@@H](N=C=S)C3)cc2)CC1` [Example 11, 4-((1s, 4s)-4-Ethylcyclohexyl)-N-((1r, 3R)-3-isothiocyanatocyclobutyl) benzamide], `COc1ccc([C@H]2C[C@@H](C(=O)N[C@H]3C[C@@H](N=C=S)C3)C2)cc1` [Example 41, (1s,3S)—N-((1s,3S)-3-Isothiocyanatocyclobutyl)-3-(4-methoxyphenyl) cyclobutane-1-carboxamide] is lower in IC50: > 1000 nM for the first, 10 to 100 nM for the second. The second is the more potent here.

First: COc1ccc(-c2ccc(C(C)O[C@H]3C[C@@H](N=C=S)C3)nc2)cc1F (some centres unmarked) [Example 40, 5-(3-Fluoro-4-methoxyphenyl)-2-(1-((1s,3s)-3-isothiocyanatocyclobutoxy)ethyl)pyridine]
Second: COc1ccc(-c2ccc(C(C)O[C@H]3C[C@@H](N=C=S)C3)nc2)cc1 (some centres unmarked) [Example 39, 2-(1-((1s,3s)-3-Isothiocyanatocyclobutoxy)ethyl)-5-(4-methoxyphenyl)pyridine]
The IC50 of the first is higher: 110 to 1000 nM for the first, 10 to 100 nM for the second.

`COc1ccc(N2CCC(C(=O)N[C@H]3C[C@@H](N=C=S)C3)CC2)cc1` [Example 17, N-((1r, 3 r)-3-Isothiocyanatocyclobutyl)-1-(4-methoxyphenyl)piperidine-4-carboxamide] and `COc1ccc(N2CC(C(=O)N[C@H]3C[C@@H](N=C=S)C3)C2)cc1` [Example 36, N-((1s,3s)-3-Isothiocyanatocyclobutyl)-1-(4-methoxyphenyl)azetidine-3-carboxamide] fall in the same range of IC50: 110 to 1000 nM for the first, 110 to 1000 nM for the second.

Compared with `COc1cccc(-c2ccc(C(=O)N[C@H]3C[C@@H](N=C=S)C3)nc2)c1` [Example 20, N-((1r, 3r)-3-Isothiocyanatocyclobutyl)-5-(3-methoxyphenyl)picolinamide], `COc1ccc(-c2ccc(C(=O)N[C@H]3C[C@@H](N=C=S)C3)nc2)cc1` [Example 18, N-((1s, 3 s)-3-Isothiocyanatocyclobutyl)-5-(4-methoxyphenyl)picolinamide] is lower in IC50: 110 to 1000 nM for the first, 10 to 100 nM for the second. The second is the more potent here.

`COc1ccc(-c2ccc(C(=O)O[C@H]3C[C@@H](N=C=S)C3)c(F)c2)cc1` [Example 8, (1r, 3r)-3-Isothiocyanatocyclobutyl 3-fluoro-4′-methoxy-[1,1′-biphenyl]-4-carboxylate] and `COc1ccc(-c2ccc(C(=O)N[C@H]3C[C@@H](N=C=S)C3)c(F)c2)cc1` [Example 7, 3-Fluoro-N-((1r, 3r)-3-isothiocyanatocyclobutyl)-4′-methoxy-[1,1′-biphenyl]-4-carboxamide] fall in the same range of IC50: 10 to 100 nM for the first, 10 to 100 nM for the second.

First: COc1ccc(Oc2ccc(C(=O)N[C@H]3C[C@H](N=C=S)C3)cc2)cc1 [Example 4, N-((1r, 3r)-3-Isothiocyanatocyclobutyl)-4-(4-methoxyphenoxy)benzamide]
Second: O=C(N[C@H]1C[C@@H](N=C=S)C1)c1ccc(Oc2cccnc2)cc1 [Example 6, N-((1r, 3r)-3-Isothiocyanatocyclobutyl)-4-(pyridin-3-yloxy)benzamide]
The IC50 of the first is higher: > 1000 nM for the first, 110 to 1000 nM for the second.

Compared with `COc1ccc(Nc2ccc(C(=O)N[C@H]3C[C@@H](N=C=S)C3)nc2)cc1` [Example 24, N-((1r, 3r)-3-Isothiocyanatocyclobutyl)-5-((4-methoxyphenyl)amino) picolinamide], `COc1ccc(-c2cnc(C(=O)N[C@H]3C[C@@H](N=C=S)C3)cn2)cc1` [Example 22, N-((1r, 3r)-3-Isothiocyanatocyclobutyl)-5-(4-methoxyphenyl)pyrazine-2-carboxamide] is lower in IC50: > 1000 nM for the first, 110 to 1000 nM for the second.

First: COc1ccc(-c2ccc(C(=O)N[C@]34C[C@](N=C=S)(C3)C4)c(F)c2)cc1 [Example 9, 3-Fluoro-N-(3-isothiocyanatobicyclo[1.1.1]pentan-1-yl)-4′-methoxy-[1,1′-biphenyl]-4-carboxamide]
Second: COc1ccc(-c2ccc(C(=O)N[C@H]3C[C@@H](N=C=S)C3)c(F)c2)cc1F [Example 29, 3,3′-Difluoro-N-((1s,3s)-3-isothiocyanatocyclobutyl)-4′-methoxy-[1,1′-biphenyl]-4-carboxamide]
The IC50 of the first is higher: > 1000 nM for the first, 10 to 100 nM for the second. The second is the more potent here.

First: COc1cccc(-c2ccc(C(=O)N[C@H]3C[C@@H](N=C=S)C3)cc2)c1 [Example 2, N-((1r, 3r)-3-Isothiocyanatocyclobutyl)-3′-methoxy-[1,1′-biphenyl]-4-carboxamide]
Second: COc1cccc(-c2ccc(C(=O)O[C@H]3C[C@@H](N=C=S)C3)cc2)c1 [Example 3, (1r, 3r)-3-Isothiocyanatocyclobutyl 3′-methoxy-[1,1′-biphenyl]-4-carboxylate]
The IC50 of the first is higher: 110 to 1000 nM for the first, 10 to 100 nM for the second. The second is the more potent here.

First: COc1ccc(-c2cc(C(=O)N[C@H]3C[C@@H](N=C=S)C3)on2)cc1 [Example 16, N-((1r, 3r)-3-Isothiocyanatocyclobutyl)-3-(4-methoxyphenyl)isoxazole-5-carboxamide]
Second: COc1ccc(-c2ncc(C(=O)N[C@H]3C[C@@H](N=C=S)C3)o2)cc1 [Example 35, N-((cis)-3-isothiocyanatocyclobutyl)-2-(4-methoxyphenyl)oxazole-5-carboxamide]
The IC50 of the first is lower: 10 to 100 nM for the first, 110 to 1000 nM for the second.

Compared with `COc1ccc(-c2cnc(C(=O)N[C@H]3C[C@@H](N=C=S)C3)c(N3CCC3)c2)cc1` [Example 38, 3-(Azetidin-1-yl)-N-((1s,3s)-3-isothiocyanatocyclobutyl)-5-(4-methoxyphenyl)picolinamide], `COc1ccc(-c2ccc(S(=O)(=O)N[C@H]3C[C@@H](N=C=S)C3)nc2)cc1` [Example 26, N-((1s, 3s)-3-Isothiocyanatocyclobutyl)-5-(4-methoxyphenyl)pyridine-2-sulfonamide] is lower in IC50: 110 to 1000 nM for the first, 10 to 100 nM for the second. The second is the more potent here.

Compared with `COc1ccc(/C=C/C(=O)N[C@H]2C[C@@H](N=C=S)C2)cc1` [Example 1, (E)-N-((1s, 3s)-3-Isothiocyanatocyclobutyl)-3-(4-methoxyphenyl)acrylamide], `COc1ccc(C#CC(=O)N[C@H]2C[C@@H](N=C=S)C2)cc1` [Example 13, N-((1r, 3r)-3-Isothiocyanatocyclobutyl)-3-(4-methoxyphenyl)propiolamide] is lower in IC50: > 1000 nM for the first, 110 to 1000 nM for the second. The second is the more potent here.

`COc1ccc(-c2ccc(C(=O)O[C@H]3C[C@@H](N=C=S)C3)c(F)c2)cc1F` [Example 28, (1s,3s)-3-isothiocyanatocyclobutyl 3,3′-difluoro-4′-methoxy-[1,1′-biphenyl]-4-carboxylate] and `COc1ccc(-c2ccc(CO[C@H]3C[C@@H](N=C=S)C3)nc2)cc1F` [Example 43, 5-(3-Fluoro-4-methoxyphenyl)-2-(((1s,3s)-3-isothiocyanatocyclobutoxy)methyl)pyridine citrate] fall in the same range of IC50: 10 to 100 nM for the first, 10 to 100 nM for the second.

`COc1ccc(-c2ccc(S(=O)(=O)N[C@H]3C[C@@H](N=C=S)C3)cc2)cc1` [Example 25, N-((1r, 3r)-3-Isothiocyanatocyclobutyl)-4′-methoxy-[1,1′-biphenyl]-4-sulfonamide] and `COc1ccc(-c2ccc(OC(=O)N[C@H]3C[C@@H](N=C=S)C3)cc2)cc1` [Example 33, 4′-Methoxy-[1,1′-biphenyl]-4-yl ((1s,3s)-3-isothiocyanatocyclobutyl)carbamate] fall in the same range of IC50: 10 to 100 nM for the first, 10 to 100 nM for the second.

`COc1ccc(-c2ccc(CO[C@H]3C[C@@H](N=C=S)C3)nc2)nc1` [Example 42, 6′-(((1s,3s)-3-Isothiocyanatocyclobutoxy)methyl)-5-methoxy-2,3′-bipyridine succinate] and `COc1ccc(-c2ccc(S(=O)(=O)O[C@H]3C[C@@H](N=C=S)C3)cc2)cc1F` [Example 31, (1s,3s)-3-Isothiocyanatocyclobutyl 3′-fluoro-4′-methoxy-[1,1′-biphenyl]-4-sulfonate] fall in the same range of IC50: 10 to 100 nM for the first, 10 to 100 nM for the second.

`COc1ccc(C23CC(C(=O)N[C@H]4C[C@@H](N=C=S)C4)(C2)C3)cc1` [Example 37, N-((1s,3s)-3-isothiocyanatocyclobutyl)-3-(4-methoxyphenyl)bicyclo[1.1.1]pentane-1-carboxamide] and `COc1ccc(CCC(=O)N[C@H]2C[C@@H](N=C=S)C2)cc1` [Example 12, N-((1r, 3r)-3-Isothiocyanatocyclobutyl)-3-(4-methoxyphenyl)propanamide] fall in the same range of IC50: 110 to 1000 nM for the first, 110 to 1000 nM for the second.

`COc1ccc(C2CC2C(=O)N[C@H]2C[C@@H](N=C=S)C2)cc1` (some centres unmarked) [Example 14, N-((1r, 3r)-3-Isothiocyanatocyclobutyl)-2-(4-methoxyphenyl)cyclopropane-1-carboxamide] and `COc1ccc(CCCC(=O)N[C@H]2C[C@@H](N=C=S)C2)cc1` [Example 15, N-((1r, 3r)-3-Isothiocyanatocyclobutyl)-4-(4-methoxyphenyl)butanamide] fall in the same range of IC50: 10 to 100 nM for the first, 10 to 100 nM for the second.

Work on `O=C(CCCCCc1ccccc1)N[C@H]1C[C@@H](N=C=S)C1` [Example 32, N-(1s,3s)-(3-Isothiocyanatocyclobutyl)-6-phenylhexanamide] yielded an IC50 of 10 to 100 nM.
